# From ChEMBL document CHEMBL1127052, “Renin inhibitors containing a pyridyl amino diol derived C-terminus” (J Med Chem, 1993)
# Assays:
# [1] = biological target: T1, Renin (Homo sapiens, UniProt P00797); assay: In vitro inhibition of renin in human plasma; format: cell-free
# T1 sequence (P00797 whole entry): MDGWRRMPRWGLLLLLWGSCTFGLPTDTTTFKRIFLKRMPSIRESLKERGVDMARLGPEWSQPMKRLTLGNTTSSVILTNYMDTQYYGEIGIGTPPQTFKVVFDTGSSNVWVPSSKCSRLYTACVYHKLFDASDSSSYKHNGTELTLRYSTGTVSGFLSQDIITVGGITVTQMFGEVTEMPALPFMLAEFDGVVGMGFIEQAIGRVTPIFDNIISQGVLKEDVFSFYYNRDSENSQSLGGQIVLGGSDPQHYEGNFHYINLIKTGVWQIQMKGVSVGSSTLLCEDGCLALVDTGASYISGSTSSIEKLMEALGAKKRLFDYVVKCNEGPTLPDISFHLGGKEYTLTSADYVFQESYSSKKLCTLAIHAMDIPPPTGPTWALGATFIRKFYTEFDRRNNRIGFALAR
# [2] = biological target: T1, Renin; assay: In vitro inhibition of purified human kidney renin
# [3] = Half-life was determined; format: ADME; details: human
# [4] = biological target: T2, Cathepsin E (Homo sapiens, UniProt P14091); assay: Selectivity against human cathepsin E
# T2 sequence (P14091 whole entry): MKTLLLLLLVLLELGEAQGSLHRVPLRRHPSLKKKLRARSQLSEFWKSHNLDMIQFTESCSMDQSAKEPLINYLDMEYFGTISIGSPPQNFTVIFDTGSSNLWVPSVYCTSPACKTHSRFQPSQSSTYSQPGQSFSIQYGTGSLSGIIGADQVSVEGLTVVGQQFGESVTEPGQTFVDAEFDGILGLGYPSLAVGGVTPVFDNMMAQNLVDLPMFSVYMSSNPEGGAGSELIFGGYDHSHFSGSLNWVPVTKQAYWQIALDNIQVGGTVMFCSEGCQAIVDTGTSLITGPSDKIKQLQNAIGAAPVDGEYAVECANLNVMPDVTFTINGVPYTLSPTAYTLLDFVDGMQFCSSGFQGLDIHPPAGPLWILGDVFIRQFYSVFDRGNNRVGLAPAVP
# [5] = biological target: Pepsin A (Homo sapiens, UniProt P0DJD9); assay: Selectivity against human pepsin
# Sequence of Pepsin A (P0DJD9 whole entry): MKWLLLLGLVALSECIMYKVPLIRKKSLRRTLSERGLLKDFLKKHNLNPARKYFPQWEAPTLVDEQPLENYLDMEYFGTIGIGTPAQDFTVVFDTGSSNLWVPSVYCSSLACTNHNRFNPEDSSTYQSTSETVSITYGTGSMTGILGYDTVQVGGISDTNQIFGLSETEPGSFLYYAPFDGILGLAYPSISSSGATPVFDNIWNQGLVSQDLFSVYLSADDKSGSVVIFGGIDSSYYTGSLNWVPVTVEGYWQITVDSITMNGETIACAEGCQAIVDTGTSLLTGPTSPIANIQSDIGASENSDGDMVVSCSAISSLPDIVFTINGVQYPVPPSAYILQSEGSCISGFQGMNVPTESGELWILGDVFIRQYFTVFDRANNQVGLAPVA
# [6] = biological target: Cathepsin D (Homo sapiens, UniProt P07339); assay: Selectivity against human cathepsin D
# Sequence of Cathepsin D (P07339 65-162 limits assumed): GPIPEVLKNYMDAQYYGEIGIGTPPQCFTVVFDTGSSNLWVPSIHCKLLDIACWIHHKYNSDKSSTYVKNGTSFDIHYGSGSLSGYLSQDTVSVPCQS
# Sequence of Cathepsin D (P07339 169-412 limits assumed): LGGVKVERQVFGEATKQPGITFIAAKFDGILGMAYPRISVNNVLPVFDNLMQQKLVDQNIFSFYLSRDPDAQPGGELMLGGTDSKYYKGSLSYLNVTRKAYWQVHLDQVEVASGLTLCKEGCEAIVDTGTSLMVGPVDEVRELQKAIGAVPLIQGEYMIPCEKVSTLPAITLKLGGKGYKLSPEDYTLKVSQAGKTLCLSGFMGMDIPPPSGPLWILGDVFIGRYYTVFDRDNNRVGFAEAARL
# [7] = biological target: T3, Gastricsin (Homo sapiens, UniProt P20142); assay: Selectivity against human gastricsin
# T3 sequence (P20142 whole entry): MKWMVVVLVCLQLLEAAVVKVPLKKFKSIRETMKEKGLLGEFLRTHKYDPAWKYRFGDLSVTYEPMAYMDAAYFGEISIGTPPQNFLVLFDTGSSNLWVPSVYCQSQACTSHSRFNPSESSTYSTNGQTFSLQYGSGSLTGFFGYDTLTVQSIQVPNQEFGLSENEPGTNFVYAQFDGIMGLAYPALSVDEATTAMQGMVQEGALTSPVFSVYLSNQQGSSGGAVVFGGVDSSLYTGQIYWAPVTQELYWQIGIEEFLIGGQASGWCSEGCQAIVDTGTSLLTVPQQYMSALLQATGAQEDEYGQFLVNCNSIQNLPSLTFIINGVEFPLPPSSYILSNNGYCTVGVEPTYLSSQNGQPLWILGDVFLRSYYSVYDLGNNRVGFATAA
IC50 [1],IC50 [2],half-life [3],IC50 [4],IC50 [5],IC50 [6],IC50 [7],Structure (SMILES)
1.1 nM,1.1 nM,22 min,,,,,O=C(N[C@@H](Cc1cnc[nH]1)C(=O)N[C@@H](CC1CCCCC1)[C@@H](O)[C@@H](O)CCc1ccccn1)[C@@H](CC(=O)N1CCOCC1)Cc1ccccc1
0.54 nM,0.7 nM,~300 min,,,,,NC1CCN(S(=O)(=O)C[C@@H](Cc2ccccc2)C(=O)N[C@@H](Cc2cnc[nH]2)C(=O)N[C@@H](CC2CCCCC2)[C@@H](O)[C@@H](O)CCc2ccccn2)CC1
0.75 nM,0.69 nM,,,,,,CCOC(=O)CCCCC(=O)N[C@@H](Cc1ccccc1)C(=O)N[C@@H](Cc1c[nH]cn1)C(=O)N[C@@H](CC1CCCCC1)[C@@H](O)[C@@H](O)CCc1ccccn1
0.25 nM,0.26 nM,,,,,,CSC[C@H](NC(=O)[C@@H](CC(=O)N1CCC(N)CC1)Cc1ccccc1)C(=O)N[C@@H](CC1CCCCC1)[C@@H](O)[C@@H](O)CCc1ccccn1
5.3 nM,4.2 nM,~90 min,,,,,COc1ccc(C[C@H](NC(=O)[C@H]2CC[C@@H](N)CC2)C(=O)N[C@@H](Cc2cnc[nH]2)C(=O)N[C@@H](CC2CCCCC2)[C@@H](O)[C@@H](O)CCc2ccccn2)cc1
0.31 nM,0.31 nM,,,,,,N[C@H]1CC[C@@H](S(=O)(=O)C[C@@H](Cc2ccccc2)C(=O)N[C@@H](Cc2cnc[nH]2)C(=O)N[C@@H](CC2CCCCC2)[C@@H](O)[C@@H](O)CCc2ccccn2)CC1
0.37 nM,0.53 nM,,,,,,NC1CCN(C(=O)O[C@@H](Cc2ccccc2)C(=O)N[C@@H](Cc2cnc[nH]2)C(=O)N[C@@H](CC2CCCCC2)[C@@H](O)[C@@H](O)CCc2ccccn2)CC1
1.3 nM,0.68 nM,,,,,,CCC[C@H](NC(=O)[C@@H](CC(=O)N1CCC(N)CC1)Cc1ccccc1)C(=O)N[C@@H](CC1CCCCC1)[C@@H](O)[C@@H](O)CCc1ccccn1

# The remaining lines, values behind:
Structure (SMILES),IC50 [1],IC50 [2],half-life [3],IC50 [4],IC50 [5],IC50 [6],IC50 [7]
CC(C)(C)S(=O)(=O)C[C@@H](Cc1ccccc1)C(=O)N[C@@H](Cc1c[nH]cn1)C(=O)N[C@@H](CC1CCCCC1)[C@@H](O)[C@@H](O)CCc1ccccn1,0.43 nM,0.17 nM,171 min,,,,
N[C@H]1CC[C@@H](C(=O)N[C@@H](Cc2ccccc2)C(=O)N[C@@H](Cc2cnc[nH]2)C(=O)N[C@@H](CC2CCCCC2)[C@@H](O)[C@@H](O)CCc2ccccn2)CC1,0.47 nM,0.5 nM,< 3 min,,,,
NC1CCN(C(=O)C[C@@H](Cc2ccccc2)C(=O)N[C@@H](Cc2c[nH]cn2)C(=O)N[C@@H](CC2CCCCC2)[C@@H](O)[C@@H](O)CCc2ccccn2)CC1,,,91 min,> 100 µM,> 100 µM,> 100 µM,> 100 µM
CN(CCN(C)C(=O)N1CCOCC1)C(=O)O[C@@H](Cc1ccccc1)C(=O)N[C@@H](Cc1c[nH]cn1)C(=O)N[C@@H](CC1CCCCC1)[C@@H](O)[C@@H](O)CCc1ccccn1,0.14 nM,0.16 nM,,,,,
NC1CCN(C(=O)C[C@@H](Cc2cccc3ccccc23)C(=O)N[C@@H](Cc2cnc[nH]2)C(=O)N[C@@H](CC2CCCCC2)[C@@H](O)[C@@H](O)CCc2ccccn2)CC1,0.79 nM,0.13 nM,,,,,
